Test results published in patent US20250154228A1, “HIGH-TRANSDERMAL-ABSORPTION PEPTIDE AND RECOMBINANT COLLAGEN CONSTRUCTED BY MEANS OF REPETITIONS OF PEPTIDE” (XI'AN GIANT BIOGENE TECHNOLOGY CO., LTD, priority 2022, published 2025).
Ends that are not written are not given here.

Test: 24 h transdermal penetration through mouse skin in vitro, single-chamber diffusion cell, BCA determination
Type: in vitro ADME, Kunming mice
Conditions: collagen peptides, 5 mg/ml in 0.9% NaCl, diffusion area 2.0 cm^2, 37.5° C., receiving solution after 24 h, BCA kit
Procedure: 10 Kunming mice of 20 to 22 g with half male and half […] were used in the experiment. After the mice were killed, the hairs on the abdomen were removed. Then the skin on the hair-removed area was peeled off, stripped of fat and grain, and rinsed repeatedly with distilled water. After being washed, the mouse skins were rinsed with normal saline, then treated with 10% glycerol, and stored at −20° C. for use (used up within 7 days).
Single-chamber diffusion cell: The effective diffusion area of the diffusion cell is 2.0 cm^2, the volume of the receiving cell is 14 ml, the length of the custom-made stirrer is 1.4 cm, and the receiving liquid is 0.9% NaCl solution.
The stored mouse skin was taken out, thawed, washed with normal saline, and sandwiched between the receiving chamber and the supplying chamber, with the medicated side facing the supplying chamber and the skin side facing the receiving chamber. The temperature of the water bath system was adjusted to 37.5° C., and the stirring speed was adjusted to 100 rpm/min. 0.9% NaCl solution pre-warmed at 37° C. was added to the receiving chamber and the air bubbles were exhausted. In order to reduce the interference, the inner surface of the mouse skin was firstly contacted with the receiving solution without medication and all the receiving solution was replaced. Then the 18 collagen peptides synthesized were prepared into 5 mg/ml solutions using 0.9% NaCl respectively, which were injected into the supplying chamber and firmly adhere to the mouse skin respectively. After 24 h, part of the receiving solution was absorbed with a syringe as the sample solution to determine the transdermal amount of collagen peptide.
The BCA kit method was used to determine the polypeptide content in the sample solution. […]

| 24 h penetration amount [µg] | Sequence |
| --- | --- |
| 3041.21 | GPPGKNGDDGEAGKPGRPGER [compound 1] |
| 3697.14 | GERGPPGPQGARGLPGTAGLP [compound 2] |
| 3498.56 | GLPGPSGEPGKQGPSGASGER [compound 17] |
| 3308.22 | GERGPPGPMGPPGLAGPPGES [compound 18] |
| 3103.23 | GERGVQGPPGPAGPRGANGAP [compound 12] |
| 3213.66 | GSPGENGAPGQMGPRGLPGER [compound 3] |
| 2994.13 | GDLGAPGPSGARGERGFPGER [compound 11] |
| 3341.78 | GEQGVPGDLGAPGPSGARGER [compound 9] |
| 3111.47 | GPQGIAGQRGVVGLPGQRGER [compound 15] |
| 3113.64 | GERGVPGPPGAVGPAGKDGEA [compound 8] |
| 3034.99 | GERGFPGLPGPSGEPGKQGPS [compound 16] |
| 2992.77 | GERGFPGERGVQGPPGPAGPR [compound 10] |
| 3389.09 | GVMGFPGPKGAAGEPGKAGER [compound 7] |
| 3745.15 | GERGAAGLPGPKGDRGDAGPK [compound 14] |
| 3124.48 | GERGRPGAPGPAGARGNDGAT [compound 4] |
| 4048.04 | GAPGAPGSQGAPGLQGMPGER [compound 13] |
| 3253.23 | GERGGPGSRGFPGADGVAGPK [compound 6] |
| 3023.05 | GKRGARGEPGPTGLPGPPGER [compound 5] |
